Assay results from ChEMBL document CHEMBL5370562, “Synthesis and evaluation of Fmoc-amino esters and amides bearing a substrate like quaternary ammonium group as selective butyrylcholinesterase inhibitors” (Bioorg Med Chem Lett, 2023).
Calls of active or inactive are those of the source. The rule behind the calls is not given here.

What was measured:
Cholinesterase [1] = target: T1, Cholinesterase (Equus caballus, UniProt P81908); test: Inhibition of equine serum BuChE using S-butyrylthiocholine iodide as substrate and measured for 60 secs by Ellman's method; assay type: cell-free
[2] = Drug metabolism in sodium phosphate buffer assessed as compound hydrolysis at 10XIC50 measured after 24 hrs by HPLC analysis; assay type: ADME; conditions: read-out: Drug metabolism
[3] = target: BuChE (butyrylcholinesterase) (Equus caballus, UniProt P81908); test: (§1) Substrate activity at equine serum BuChE assessed as compound hydrolysis at 10XIC50 measured after 1 hr by HPLC analysis; assay type: ADME, cell-free; conditions: horse, equine serum butyrylcholinesterase (BuChE), read-out: Drug metabolism
[4] = target: Acetylcholinesterase (Electrophorus electricus) (UniProt O42275); test: Inhibition of electric eel AChE assessed as residual enzyme activity at 10 uM using acetylthiocholine iodide as substrate and measured for 1 min by spectrophotometrc analysis relative to control
[5] = target: Cholinesterase (Equus caballus) (UniProt P81908); test: Inhibition of equine serum BuChE assessed as residual enzyme activity at 10 uM using S-butyrylthiocholine iodide as substrate and measured for 60 secs by spectrophotometric analysis relative to control; assay type: cell-free; conditions: time 60.0 sec
[6] = target: Cholinesterase (Equus caballus) (UniProt P81908); test: Irreversible inhibition of equine serum BuChE assessed as residual enzyme activity at IC50 using S-butyrylthiocholine iodide as substrate preincubated with enzyme for 60 mins followed by 80-fold dilution with BTC and DTNB and measured for 1 min by spectrophotometric analysis relative to control; assay type: cell-free; conditions: time 61.0 min
Trypsin (Homo sapiens) [7] = target: T2, Trypsin (Homo sapiens) (UniProt P07477+P07478+P35030); test: Inhibition of trypsin (unknown origin) assessed as residual enzyme activity at 10 uM using 4-nitrophenyl acetate as substrate and measured for 1 min by spectrophotometric analysis relative to control; assay type: protein assay
[8] = target: Acetylcholinesterase (Electrophorus electricus) (UniProt O42275); test: Inhibition of electric eel AChE assessed as residual enzyme activity at 20 uM using acetylthiocholine iodide as substrate and measured for 1 min by spectrophotometrc analysis relative to control
[9] = target: Cholinesterase (Equus caballus) (UniProt P81908); test: Reversible inhibition of equine serum BuChE assessed as residual enzyme activity at IC50 using S-butyrylthiocholine iodide as substrate preincubated with enzyme for 60 mins followed by 80-fold dilution with BTC and DTNB and measured for 1 min by spectrophotometric analysis relative to control; assay type: cell-free; conditions: time 61.0 min
[10] = target: Acetylcholinesterase (Electrophorus electricus) (UniProt O42275); test: Inhibition of electric eel AChE at 100XIC50 for BuChE using acetylthiocholine iodide as substrate and measured for 1 min by spectrophotometrc analysis
[11] = target: Acetylcholinesterase (Electrophorus electricus) (UniProt O42275); test: Inhibition of electric eel AChE assessed as residual enzyme activity at 50 uM using acetylthiocholine iodide as substrate and measured for 1 min by spectrophotometrc analysis relative to control
Cholinesterase [12] = target: T1, Cholinesterase; test: as §1; assay type: ADME, cell-free; conditions: horse, serum, 1 h
Trypsin (Homo sapiens) [13] = target: T2, Trypsin (Homo sapiens); test: Inhibition of trypsin (unknown origin) assessed as residual enzyme activity at 50 uM using 4-nitrophenyl acetate as substrate and measured for 1 min by spectrophotometric analysis relative to control; assay type: protein assay
[14] = target: Cholinesterase (Equus caballus) (UniProt P81908); test: Inhibition of equine serum BuChE assessed as residual enzyme activity at 20 uM using S-butyrylthiocholine iodide as substrate and measured for 60 secs by spectrophotometric analysis relative to control; assay type: cell-free; conditions: time 60.0 sec
Trypsin (Homo sapiens) [15] = target: T2, Trypsin (Homo sapiens); test: Inhibition of trypsin (unknown origin) at 50 uM using 4-nitrophenyl acetate as substrate and measured for 1 min by spectrophotometric analysis relative to control; assay type: protein assay
Trypsin (Homo sapiens) [16] = target: T2, Trypsin (Homo sapiens); test: Inhibition of trypsin (unknown origin) assessed as residual enzyme activity at 20 uM using 4-nitrophenyl acetate as substrate and measured for 1 min by spectrophotometric analysis relative to control; assay type: protein assay
[17] = target: Cholinesterase (Equus caballus) (UniProt P81908); test: Inhibition of equine serum BuChE assessed as residual enzyme activity at 50 uM using S-butyrylthiocholine iodide as substrate and measured for 60 secs by spectrophotometric analysis relative to control; assay type: cell-free; conditions: time 60.0 sec
[18] = target: Acetylcholinesterase (Electrophorus electricus) (UniProt O42275); test: Inhibition of electric eel AChE at 50 uM using acetylthiocholine iodide as substrate and measured for 1 min by spectrophotometrc analysis relative to control
[19] = target: Acetylcholinesterase (Electrophorus electricus) (UniProt O42275); test: Inhibition of electric eel AChE at 25XIC50 for BuChE using acetylthiocholine iodide as substrate and measured for 1 min by spectrophotometrc analysis relative to control

T1 sequence (P81908 whole entry): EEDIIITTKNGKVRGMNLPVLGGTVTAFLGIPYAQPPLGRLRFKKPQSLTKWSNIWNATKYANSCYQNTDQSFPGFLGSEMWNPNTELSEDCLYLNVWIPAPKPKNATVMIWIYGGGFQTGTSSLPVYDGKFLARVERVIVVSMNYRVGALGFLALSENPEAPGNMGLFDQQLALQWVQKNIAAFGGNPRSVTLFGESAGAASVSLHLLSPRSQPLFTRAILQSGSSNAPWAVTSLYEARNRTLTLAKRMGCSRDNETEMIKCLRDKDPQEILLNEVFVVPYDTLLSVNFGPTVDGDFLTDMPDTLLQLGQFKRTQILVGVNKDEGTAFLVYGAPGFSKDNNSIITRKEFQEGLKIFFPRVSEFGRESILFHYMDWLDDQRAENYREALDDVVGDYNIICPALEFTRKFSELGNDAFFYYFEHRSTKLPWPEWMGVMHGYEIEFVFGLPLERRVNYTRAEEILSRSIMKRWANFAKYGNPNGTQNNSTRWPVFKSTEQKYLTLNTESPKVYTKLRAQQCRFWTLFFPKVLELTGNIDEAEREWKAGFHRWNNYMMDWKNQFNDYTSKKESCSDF
Chain of Cholinesterase (Equus caballus) (P81908 whole entry): as above
Chain of BuChE (butyrylcholinesterase) (P81908 whole entry): as above
Chain of Acetylcholinesterase (Electrophorus electricus) (O42275 24-633 limits assumed): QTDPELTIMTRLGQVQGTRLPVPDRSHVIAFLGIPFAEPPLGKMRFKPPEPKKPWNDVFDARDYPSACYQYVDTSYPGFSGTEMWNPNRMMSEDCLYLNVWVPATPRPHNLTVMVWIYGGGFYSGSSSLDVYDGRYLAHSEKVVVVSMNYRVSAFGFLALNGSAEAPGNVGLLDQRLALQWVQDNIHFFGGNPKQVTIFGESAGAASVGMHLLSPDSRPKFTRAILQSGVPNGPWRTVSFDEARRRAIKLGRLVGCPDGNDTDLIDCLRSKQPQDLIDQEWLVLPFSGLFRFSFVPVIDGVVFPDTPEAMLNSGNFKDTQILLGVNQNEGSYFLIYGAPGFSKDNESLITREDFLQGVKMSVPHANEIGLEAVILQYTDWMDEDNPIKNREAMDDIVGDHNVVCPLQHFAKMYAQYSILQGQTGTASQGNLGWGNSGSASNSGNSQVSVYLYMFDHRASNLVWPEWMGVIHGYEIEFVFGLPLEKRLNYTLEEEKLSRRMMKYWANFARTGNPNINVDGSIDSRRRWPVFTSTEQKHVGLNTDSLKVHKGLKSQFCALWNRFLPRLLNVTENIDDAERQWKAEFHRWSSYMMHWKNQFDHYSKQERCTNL

Row | Structure (SMILES) | IC50 (Cholinesterase [1]) | degraded at 24 h [2] | metabolised at 1 h [3] | Ratio [4] | Ratio [5] | Ratio (Trypsin (Homo sapiens) [7]) | Ratio [8] | Ratio [9] | inhibition [10] | Ratio [11] | Drug metabolism (Cholinesterase [12]) | Ratio (Trypsin (Homo sapiens) [13]) | Ratio [14] | inhibition (Trypsin (Homo sapiens) [15]) | Ratio (Trypsin (Homo sapiens) [16]) | Ratio [17] | other results
1 | C[N+](C)(C)CCOC(=O)[C@H](Cc1ccccc1)NC(=O)OCC1c2ccccc2-c2ccccc21 | 1 µM | ~20% | ~100% | – | – | – | – | – | – | – | – | – | – | – | – | – | –
2 | CC(C)C[C@H](NC(=O)OCC1c2ccccc2-c2ccccc21)C(=O)O | 134 µM | – | – | – | – | – | – | – | – | – | – | – | – | – | – | – | –
3 | O=C(N[C@@H](Cc1ccccc1)C(=O)O)OCC1c2ccccc2-c2ccccc21 | 320 µM | – | – | – | – | – | – | – | – | – | – | – | – | – | – | – | –
4 | O=S(=O)(F)Cc1ccccc1 | – | – | – | < 0.01 | < 0.01 | < 0.01 | – | – | – | – | – | – | – | – | – | – | Ratio [6]: 0.01
5 | CC(C)(C)OC(=O)NCCCC[C@H](NC(=O)OCC1c2ccccc2-c2ccccc21)C(=O)OCC[N+](C)(C)C | 0.5 µM | ~20% | ~25% | – | – | – | – | – | – | – | – | – | – | – | – | – | –
6 | CC(C)(C)OC(=O)n1cc(C[C@H](NC(=O)OCC2c3ccccc3-c3ccccc32)C(=O)OCC[N+](C)(C)C)c2ccccc21 | 0.4 µM | ~20% | ~25% | – | – | – | – | – | – | – | – | – | – | – | – | – | –
7 | C[C@H](NC(=O)OCC1c2ccccc2-c2ccccc21)C(=O)NCC[N+](C)(C)C.[I-] | 7.5 µM | – | – | 1 | 0.44 | 1.01 | 0.97 | 1.02 | Active | 0.94 | Metabolite_Notdetected | 0.98 | 0.31 | < 5% | 1.04 | 0.13 | –
8 | C[N+](C)(C)CCOC(=O)CNC(=O)OCC1c2ccccc2-c2ccccc21 | 6.7 µM | ~20% | ~100% | – | – | – | – | – | – | – | – | – | – | – | – | – | –
9 | CC(C)C[C@H](NC(=O)OCC1c2ccccc2-c2ccccc21)C(=O)NCC[N+](C)(C)C.[I-] | 1.8 µM | – | – | 1 | 0.21 | 1.05 | 1.01 | 1.01 | Active | 0.92 | Metabolite_Notdetected | 0.99 | 0.11 | < 5% | 0.99 | 0.03 | –
10 | C[C@H](NC(=O)OCC1c2ccccc2-c2ccccc21)C(=O)OCC[N+](C)(C)C | 5.1 µM | ~20% | ~25% | – | – | – | – | – | – | – | – | – | – | – | – | – | –
11 | CC(C)(C)OC(=O)NCCCC[C@H](NC(=O)OCC1c2ccccc2-c2ccccc21)C(=O)NCC[N+](C)(C)C.[I-] | 0.14 µM | – | – | 1.01 | 0.06 | 1 | 1 | 1.04 | Active | 0.81 | Metabolite_Notdetected | 0.97 | 0.03 | < 5% | 0.95 | 0.01 | inhibition [18]: 20%
12 | CC(C)(C)OC(=O)n1cc(C[C@H](NC(=O)OCC2c3ccccc3-c3ccccc32)C(=O)NCC[N+](C)(C)C)c2ccccc21.[I-] | 0.17 µM | – | – | 0.96 | 0.04 | 1 | 0.87 | 0.99 | Active | 0.68 | Metabolite_Notdetected | 0.94 | 0.02 | < 5% | 0.93 | < 0.01 | inhibition [18]: 30%; inhibition [19]: 10%
13 | C[N+](C)(C)CCNC(=O)[C@H](Cc1ccccc1)NC(=O)OCC1c2ccccc2-c2ccccc21.[I-] | 0.6 µM | – | – | 0.97 | 0.07 | 1.01 | 0.99 | 1.01 | Active | 0.89 | Metabolite_Notdetected | 0.95 | 0.03 | < 5% | 1.01 | 0.02 | inhibition [18]: 10%
14 | O=C(O)CNC(=O)OCC1c2ccccc2-c2ccccc21 | ≥ 200 µM | – | – | – | – | – | – | – | – | – | – | – | – | – | – | – | –
15 | C[N+](C)(C)CCNC(=O)CNC(=O)OCC1c2ccccc2-c2ccccc21.[I-] | 3.7 µM | – | – | 0.99 | 0.36 | 0.96 | 0.95 | 1 | Active | 0.84 | Metabolite_Notdetected | 1.06 | 0.21 | < 5% | 0.96 | 0.07 | inhibition [18]: 10%
16 | C[C@H](NC(=O)OCC1c2ccccc2-c2ccccc21)C(=O)O | ≥ 200 µM | – | – | – | – | – | – | – | – | – | – | – | – | – | – | – | –
17 | CC(C)C[C@H](NC(=O)OCC1c2ccccc2-c2ccccc21)C(=O)OCC[N+](C)(C)C | 0.7 µM | ~20% | ~50% | – | – | – | – | – | – | – | – | – | – | – | – | – | –
18 | CC(C)(C)OC(=O)NCCCC[C@H](NC(=O)OCC1c2ccccc2-c2ccccc21)C(=O)O | 41 µM | – | – | – | – | – | – | – | – | – | – | – | – | – | – | – | –
19 | CC(C)(C)OC(=O)n1cc(C[C@H](NC(=O)OCC2c3ccccc3-c3ccccc32)C(=O)O)c2ccccc21 | 23 µM | – | – | – | – | – | – | – | – | – | – | – | – | – | – | – | –
